In PubChem BioAssay (NCI):
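Where inhibition never reached the appropriate level, the endpoint shown equals the highest concentration tested. Otherwise, values were interpolated linearly from a five-concentration, 48-hour dose response in 96-well plates. Here, GI50 denotes the concentration required for 50% inhibition of growth. Definition used: TGI = concentration required for complete inhibition of growth.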

Tests used:
Experiment in all cases: NCI-60 cell line screen, 48 h
786-0 renal = tested on: 786-0 renal
A498 renal = tested on: A498 renal
A549 NSCLC = tested on: A549 NSCLC
ACHN renal = tested on: ACHN renal
BT-549 breast = tested on: BT-549 breast
CAKI-1 renal = tested on: CAKI-1 renal
CCRF-CEM leukemia = tested on: CCRF-CEM leukemia
COLO 205 colon = tested on: COLO 205 colon
DU-145 prostate = tested on: DU-145 prostate
EKVX NSCLC = tested on: EKVX NSCLC
HCC-2998 colon = tested on: HCC-2998 colon
HCT-116 colon = tested on: HCT-116 colon
HCT-15 colon = tested on: HCT-15 colon
HL-60(TB) leukemia = tested on: HL-60(TB) leukemia
HOP-62 NSCLC = tested on: HOP-62 NSCLC
HOP-92 NSCLC = tested on: HOP-92 NSCLC
HS 578T breast = tested on: HS 578T breast
HT29 colon = tested on: HT29 colon
IGROV1 ovarian = tested on: IGROV1 ovarian
K-562 leukemia = tested on: K-562 leukemia
KM12 colon = tested on: KM12 colon
LOX IMVI melanoma = tested on: LOX IMVI melanoma
M14 melanoma = tested on: M14 melanoma
MALME-3M melanoma = tested on: MALME-3M melanoma
MCF7 breast = tested on: MCF7 breast
MDA-MB-231 breast = tested on: MDA-MB-231 breast
MDA-MB-435 = tested on: MDA-MB-435
MDA-MB-468 breast = tested on: MDA-MB-468 breast
MOLT-4 leukemia = tested on: MOLT-4 leukemia
NCI-H226 lung = tested on: NCI-H226 lung
NCI-H23 lung = tested on: NCI-H23 lung
NCI-H460 lung = tested on: NCI-H460 lung
NCI-H522 lung = tested on: NCI-H522 lung
NCI/ADR-RES ovarian = tested on: NCI/ADR-RES ovarian
OVCAR-3 ovarian = tested on: OVCAR-3 ovarian
OVCAR-4 ovarian = tested on: OVCAR-4 ovarian
OVCAR-5 ovarian = tested on: OVCAR-5 ovarian
OVCAR-8 ovarian = tested on: OVCAR-8 ovarian
PC-3 prostate = tested on: PC-3 prostate
RPMI-8226 leukemia = tested on: RPMI-8226 leukemia
RXF 393 renal = tested on: RXF 393 renal
SF-268 CNS = tested on: SF-268 CNS
SF-295 CNS = tested on: SF-295 CNS
SF-539 CNS = tested on: SF-539 CNS
SK-MEL-2 melanoma = tested on: SK-MEL-2 melanoma
SK-MEL-28 melanoma = tested on: SK-MEL-28 melanoma
SK-MEL-5 melanoma = tested on: SK-MEL-5 melanoma
SK-OV-3 ovarian = tested on: SK-OV-3 ovarian
SN12C renal = tested on: SN12C renal
SNB-19 CNS = tested on: SNB-19 CNS
SNB-75 CNS = tested on: SNB-75 CNS
SR leukemia = tested on: SR leukemia
SW-620 colon = tested on: SW-620 colon
T-47D breast = tested on: T-47D breast
TK-10 renal = tested on: TK-10 renal
U251 CNS = tested on: U251 CNS
UACC-257 melanoma = tested on: UACC-257 melanoma
UACC-62 melanoma = tested on: UACC-62 melanoma
UO-31 renal = tested on: UO-31 renal

For `CN1CCN(CCS(=O)(=O)Nc2cc(-c3ccc4ncnc(Nc5ccc(F)c(Cl)c5)c4c3)cnc2Cl)CC1`, the GI50 (786-0 renal) was 1.84 µM, the TGI (786-0 renal) was > 100 µM and the GI50 (A498 renal) was 1.03 µM. The TGI (A498 renal) was 4.4 µM, the GI50 (A549 NSCLC) was 11.1 µM and the TGI (A549 NSCLC) was 49.9 µM. The GI50 (ACHN renal) was 3.67 µM, the TGI (ACHN renal) was > 100 µM and the GI50 (BT-549 breast) was 1.06 µM. For the same molecule, the TGI (BT-549 breast) was 4.28 µM, the GI50 (CAKI-1 renal) was 1.33 µM and the TGI (CAKI-1 renal) was 19 µM. The GI50 (CCRF-CEM leukemia) was 0.579 µM, the TGI (CCRF-CEM leukemia) was 80.4 µM and the GI50 (COLO 205 colon) was 2.74 µM. The TGI (COLO 205 colon) was 10.4 µM, the GI50 (DU-145 prostate) was 3.23 µM and the TGI (DU-145 prostate) was > 100 µM. For the same molecule, the GI50 (EKVX NSCLC) was 1.23 µM, the TGI (EKVX NSCLC) was 6.36 µM and the GI50 (HCC-2998 colon) was 1.6 µM. The TGI (HCC-2998 colon) was 6.2 µM, the GI50 (HCT-116 colon) was 4.18 µM and the TGI (HCT-116 colon) was 18.5 µM. It also gave a GI50 (HCT-15 colon) of 4.38 µM, a TGI (HCT-15 colon) of 43.6 µM and a GI50 (HL-60(TB) leukemia) of 0.658 µM. The TGI (HL-60(TB) leukemia) was 23.7 µM, the GI50 (HOP-62 NSCLC) was 2.04 µM and the TGI (HOP-62 NSCLC) was 38.4 µM. The GI50 (HOP-92 NSCLC) was 0.675 µM, the TGI (HOP-92 NSCLC) was 7.13 µM and the GI50 (HS 578T breast) was 0.32 µM. It also gave a TGI (HS 578T breast) of 3.75 µM, a GI50 (HT29 colon) of 3.87 µM and a TGI (HT29 colon) of 21.5 µM. It also gave a GI50 (IGROV1 ovarian) of 0.686 µM, a TGI (IGROV1 ovarian) of 2.93 µM and a GI50 (K-562 leukemia) of 4.5 µM. For the same molecule, the TGI (K-562 leukemia) was > 100 µM, the GI50 (KM12 colon) was 8.23 µM and the TGI (KM12 colon) was 31.5 µM. It also gave a GI50 (LOX IMVI melanoma) of 1.17 µM, a TGI (LOX IMVI melanoma) of 2.92 µM and a GI50 (M14 melanoma) of 3.34 µM. For the same molecule, the TGI (M14 melanoma) was 20.5 µM, the GI50 (MALME-3M melanoma) was 0.726 µM and the TGI (MALME-3M melanoma) was 5.76 µM. For the same molecule, the GI50 (MCF7 breast) was 1.16 µM, the TGI (MCF7 breast) was 15.3 µM and the GI50 (MDA-MB-231 breast) was 1.74 µM. For the same molecule, the TGI (MDA-MB-231 breast) was 4.13 µM, the GI50 (MDA-MB-435) was 3.11 µM and the TGI (MDA-MB-435) was 16 µM. The GI50 (MDA-MB-468 breast) was 0.205 µM, the TGI (MDA-MB-468 breast) was 0.902 µM and the GI50 (MOLT-4 leukemia) was 2.5 µM. The TGI (MOLT-4 leukemia) was 7.08 µM, the GI50 (NCI-H226 lung) was 1.96 µM and the TGI (NCI-H226 lung) was > 100 µM. The GI50 (NCI-H23 lung) was 2.8 µM, the TGI (NCI-H23 lung) was 15.1 µM and the GI50 (NCI-H460 lung) was 5.85 µM. The TGI (NCI-H460 lung) was > 100 µM, the GI50 (NCI-H522 lung) was 1.96 µM and the TGI (NCI-H522 lung) was 11.3 µM. The GI50 (NCI/ADR-RES ovarian) was 66.6 µM, the TGI (NCI/ADR-RES ovarian) was > 100 µM and the GI50 (OVCAR-3 ovarian) was 0.596 µM. The TGI (OVCAR-3 ovarian) was 2.99 µM, the GI50 (OVCAR-4 ovarian) was 5.45 µM and the TGI (OVCAR-4 ovarian) was > 100 µM. The GI50 (OVCAR-5 ovarian) was 2.56 µM, the TGI (OVCAR-5 ovarian) was 27 µM and the GI50 (OVCAR-8 ovarian) was 3.73 µM. For the same molecule, the TGI (OVCAR-8 ovarian) was 23.1 µM, the GI50 (PC-3 prostate) was 2.09 µM and the TGI (PC-3 prostate) was 19.6 µM. For the same molecule, the GI50 (RPMI-8226 leukemia) was 13.5 µM, the TGI (RPMI-8226 leukemia) was 38 µM and the GI50 (RXF 393 renal) was 0.784 µM. The TGI (RXF 393 renal) was 3.85 µM, the GI50 (SF-268 CNS) was 1.8 µM and the TGI (SF-268 CNS) was 37.7 µM. The GI50 (SF-295 CNS) was 3.01 µM, the TGI (SF-295 CNS) was 65.1 µM and the GI50 (SF-539 CNS) was 1.82 µM. It also gave a TGI (SF-539 CNS) of 6.8 µM, a GI50 (SK-MEL-2 melanoma) of 2.32 µM and a TGI (SK-MEL-2 melanoma) of 7.79 µM. The GI50 (SK-MEL-28 melanoma) was 2.39 µM, the TGI (SK-MEL-28 melanoma) was 37.4 µM and the GI50 (SK-MEL-5 melanoma) was 1.61 µM. It also gave a TGI (SK-MEL-5 melanoma) of 4.34 µM, a GI50 (SK-OV-3 ovarian) of 1.59 µM and a TGI (SK-OV-3 ovarian) of 7.28 µM. For the same molecule, the GI50 (SN12C renal) was 3.25 µM, the TGI (SN12C renal) was > 100 µM and the GI50 (SNB-19 CNS) was 1.97 µM. The TGI (SNB-19 CNS) was > 100 µM, the GI50 (SNB-75 CNS) was 0.458 µM and the TGI (SNB-75 CNS) was 11 µM. The GI50 (SR leukemia) was 2.06 µM, the TGI (SR leukemia) was 7.68 µM and the GI50 (SW-620 colon) was 1.95 µM. It also gave a TGI (SW-620 colon) of 38.6 µM, a GI50 (T-47D breast) of 0.221 µM and a TGI (T-47D breast) of 3.12 µM. It also gave a GI50 (TK-10 renal) of 1.83 µM, a TGI (TK-10 renal) of 13.2 µM and a GI50 (U251 CNS) of 3.12 µM. The TGI (U251 CNS) was > 100 µM, the GI50 (UACC-257 melanoma) was 3.02 µM and the TGI (UACC-257 melanoma) was 17.2 µM. For the same molecule, the GI50 (UACC-62 melanoma) was 1.18 µM, the TGI (UACC-62 melanoma) was 9.65 µM and the GI50 (UO-31 renal) was 2.07 µM. The TGI (UO-31 renal) was 13.4 µM.
